Literature values, collected in article PMC12042267, “Expanding the Family of Monosubstituted 15-Membered Pyridine-Based Macrocyclic Ligands for Mn(II) Complexation in the Context of MRI” (Inorganic Chemistry, 2025).
Read-outs that look alike come from different tables or passages of the source.

Legend:
[1] = cited from earlier work
[2] = cited from earlier work; for r1p298: 298 K and 0.47 T ref 21; for r1 (relaxivity): 20 MHz, 0.47 T ref 28
[3] = cited from earlier work; remark: listed apart in the source
[4] = Cu(II), cited from earlier work
[5] = Zn(II), cited from earlier work
[6] = Mn(II) complex, cited from earlier work; for dissociation half-life t1/2: calculated for pH 7.4
[7] = cited from earlier work; remark: listed apart in the source
[8] = cited from earlier work; remark: listed apart in the source
[9] = Ca(II), cited from earlier work
[10] = Mn(II) complex, cited from earlier work
[11] = 0.15 NaCl and 2 mM concentration ref 21, 58

## O.O=C([O-])CN1CCNCc2cccc(n2)CN(CC(=O)[O-])CC1.[Mn+2] [Mn(3,6-PC2A)]
[1]; [11]
  Eox: +862 mV
[2]
  r1p298: 2.72 mM^–1 s^–1
[3]
  kex^298: 14.0 ± 2.5 10^7 s^–1
  ΔH^‡: 38.2 ± 3.9 kJ mol^–1

## Mn(EDTA)
[1]; [11]
  Eox: +769 mV

## O.O.[Mn+2].c1cc2nc(c1)CNCCOCCOCCNC2 [Mn(15-pyN3O2)]
[1]
  Eox: 912 mV
[2]; 25 °C
  r1 (relaxivity): 4.48 mM^–1 s^–1
[2]; 37 °C
  r1 (relaxivity): 3.61 mM^–1 s^–1
[3]
  AO/ℏ: 38.6 10^6 rad s^–1
  ErH: 16.1 kJ mol^–1
  kex^298: 0.38 10^7 s^–1
  ΔH^‡: 35.3 kJ mol^–1
  ΔS^‡: –1.0 J mol^–1K^–1
  Δ^2: 6.6 10^18 s^–2
  τrH^298: 40.3 ps
  τv^298: 3.3 ps

## c1cc2nc(c1)CNCCNCCNCCNC2 [15-pyN5]
[4]; 0.1 M NMe4Cl ref 28
  log KML: 21.84
  log KML(OH): -12.30
[5]; 0.1 M NMe4Cl ref 28
  log KHML: 2.45
  log KML: 16.27
  log KML(OH): -11.18
[6]; Zn(II) transmetalation ref 28
  k1: 423 M^–1 s^–1
  k2: 1.0 × 10^7 M^–2 s^–1
  k4: 1.7 × 10^4 M^–2 s^–1
[6]; Zn(II) ref 28
  dissociation half-life t1/2: 11.0 h
[7]; 0.1 M NMe4Cl ref 28
  log K1^H: 9.40
  log K2^H: 8.54
  log K3^H: 5.28
[7]; 0.1 NaClO4 ref 40
  log K1^H: 9.43
  log K2^H: 8.80
  log K3^H: 5.28
[7]; 0.1 NaClO4 ref 41
  log K1^H: 9.11
  log K2^H: 8.82
  log K3^H: 5.27
[8]; Mn(II), 0.1 M NMe4Cl ref 28
  log KML: 10.89
  log KML(OH): -11.52
[8]; Mn(II), 0.1 M NMe4Cl, log KMnHL in Table 5 ref 28
  log KHML: 4.27
[8]; Mn(II), 0.1 M NaClO4 ref 40
  log KHML: 4.20
  log KML: 11.64
[8]; Mn(II), 0.1 M NaClO4 ref 41
  log KHML: 4.51
  log KML: 11.12
[8]; pH 7.4, cMn = clig = 10^–5 M ref 28
  pMn: 6.37
[8]; pH 7.4, cMn = clig = 10^–5 M ref 40
  pMn: 6.60
[8]; pH 7.4, cMn = clig = 10^–5 M ref 41
  pMn: 6.59
[9]; 0.1 M NMe4Cl ref 28
  log KML: 2.97

## O.O=C([O-])CN1CCNCCN(CC(=O)[O-])Cc2cccc(n2)C1.[Mn+2] [Mn(3,9-PC2A)]
[1]; [11]
  Eox: +838 mV
[2]
  r1p298: 2.91 mM^–1 s^–1
[3]
  kex^298: 12.6 ± 1.2 10^7 s^–1
  ΔH^‡: 37.5 ± 2.4 kJ mol^–1

## O=C(O)CN1CCOCCOCCNCc2cccc(n2)C1 [L1]
[4]; I = 0.15 M NaCl, 25 °C ref 30
  log KHML: 2.67
  log KML: 15.86
  log KML(OH): -9.7
[5]; I = 0.15 M NaCl, 25 °C ref 30
  log KHML: 2.80
  log KML: 13.12
[6]; Zn(II) transmetalation ref 30
  k0: (4.1 ± 0.3) × 10^–3 s^–1
  k1: 1691 ± 41 M^–1 s^–1
[6]; Zn(II) ref 30
  dissociation half-life t1/2: 0.0467 h
[7]; I = 0.15 M NaCl, 25 °C ref 30
  log K1^H: 8.86
  log K2^H: 8.03
  log K3^H: 1.9
[8]; Mn(II), I = 0.15 M NaCl, 25 °C ref 30
  log KML: 11.06
[8]; Mn(II), I = 0.15 M NaCl, 25 °C, log KMnHL in Table 5 ref 30
  log KHML: 3.82
[8]; pH 7.4, cMn = clig = 10^–5 M ref 30
  pMn: 6.95
[9]; I = 0.15 M NaCl, 25 °C ref 30
  log KHML: 6.37
  log KML: 5.51

## O=C(O)CN1CCNCc2cccc(n2)CNCC1 [PC1A]
[4]; 0.1 M NMe4Cl ref 20
  log KHML: 2.09
  log KML: 18.62
[5]; 0.1 M NMe4Cl ref 20
  log KHML: 3.03
  log KML: 17.01
[6]; Zn(II) transmetalation ref 20
  k1: 2020 ± 40 M^–1 s^–1
  k2: (8.0 ± 0.3) × 10^7 M^–2 s^–1
[6]; Zn(II) ref 20
  dissociation half-life t1/2: 2.4 h
[7]; 0.1 M NMe4Cl ref 20
  log K1^H: 10.47
  log K2^H: 8.71
  log K3^H: 2.79
[8]; Mn(II), 0.1 M NMe4Cl ref 20
  log KML: 11.54
[8]; Mn(II), 0.1 M NMe4Cl, log KMnHL in Table 5 ref 20
  log KHML: 4.95
[8]; pH 7.4, cMn = clig = 10^–5 M ref 20
  pMn: 8.10
[9]; 0.1 M NMe4Cl ref 20
  log KHML: 7.39
  log KML: 6.04

## O=C(O)CN1CCN(Cc2ccc(-c3ccccc3)cc2)CCN(CC(=O)O)Cc2cccc(n2)C1 [PC2A-BP]
[4]; I = 0.15 M NaCl, 25 °C ref 23
  log KHML: 1.04
  log KML: 22.30
[10]; Cu(II) transmetalation ref 23
  k1: 16.9 ± 0.2 M^–1 s^–1
[10]; calculated for pH 7.4, Cu(II) ref 23
  dissociation half-life t1/2: 286.2 h
[5]; I = 0.15 M NaCl, 25 °C ref 23
  log KHML: 1.71
  log KML: 18.05
[7]; I = 0.15 M NaCl, 25 °C ref 23
  log K1^H: 10.45
  log K2^H: 6.93
  log K3^H: 2.36
  log K4^H: 1.64
[8]; Mn(II), I = 0.15 M NaCl, 25 °C ref 23
  log KML: 14.86
[8]; pH 7.4, cMn = clig = 10^–5 M ref 23
  pMn: 8.35
[9]; I = 0.15 M NaCl, 25 °C ref 23
  log KML: 7.94
